Experimental data from the METLIN SMRT retention time set (Domingo-Almenara et al. 2019).

Assay: gradient 5% acetonitrile 3 min, to 50% in 2 min, to 85% in 15 min, held 3 min, 100 µL/min
Conditions: column: Zorbax Extend-C18 2.1 x 50 mm; eluents: water / acetonitrile, 0.1% formic acid
Procedure, shortened: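 Each retention time is based on an adduct peak selected computationally and verified by manual inspection. Measurements used HPLC–quadrupole time-of-flight mass spectrometry in positive and negative ionization mode on mixtures of ~100 pure standards. Chromatography ran on a Zorbax Extend-C18 column (2.1 × 50 mm, 1.8 μm) at 100 μL/min with water and acetonitrile, each containing 0.1% formic acid, and dead and dwell volumes of 40 μL and 900 μL.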

Row | Structure (SMILES) | RP-LC retention time [s]
1 | CC1CCCC(NC(=O)C2CCCN(C(=O)c3cc4sccc4n3C)C2)C1C (stereo not given) | 991
2 | CCc1ccc2nc(C)cc(C(=O)NC)c2c1 | 568
3 | CC(C)n1cnc(S(=O)(=O)N2CCCC(C(=O)Nc3cccc(CN4CCCC4)c3)C2)c1 (stereo not given) | 627
4 | CCCn1c(=O)sc2cc(S(=O)(=O)N3CCC(C(=O)N4CCN(C)CC4)CC3)ccc21 | 628
5 | O=S(=O)(c1ccc(-c2nnc(C3CCCC3)o2)o1)N1CCOCC1 | 834
6 | COCCNCc1c(C(=O)O)c(C)n(Cc2cccc(Cl)c2)c1C | 679
7 | CC(=O)Nc1nsc(N2CCC(C(=O)NCc3ccc(F)cc3Cl)CC2)n1 | 863
8 | CCc1nnc(-c2cc(NS(C)(=O)=O)c(C)s2)o1 | 747
9 | Cc1ccc(S(=O)(=O)Nc2ccc(C)n(CC(=O)O)c2=O)cc1 | 694
10 | COc1cc2c(cc1OC)C(C(=O)N1CCN(C)CC1)C(c1ccc(SC)cc1)N(C)C2=O (stereo not given) | 612
11 | CC(C)c1ccc(S(=O)(=O)N(CC(=O)N2CCNCC2)CC2CCCO2)cc1 (stereo not given) | 602
12 | O=C(NC1CCN(c2ccccc2)C1=O)c1ccc(Br)cc1 (stereo not given) | 844
13 | CN(C)c1cc(OC2CCN(C(=O)c3c[nH]c4ccccc34)C2)ncn1 (stereo not given) | 604
14 | COc1ccc(NC(=O)N2CCC3(CC2)NC(=O)c2ccc(Cl)cc2N3C)cc1OC | 734
15 | CN(C)c1ccc(NC(=O)Cn2nc3c(Oc4ccc(Cl)cc4)nccn3c2=O)cc1 | 674
16 | CC1CC(=O)c2cnc(N3CCN(c4ccccn4)CC3)nc2C1 (stereo not given) | 611
17 | Cc1cccc2c(=O)n(C3CCN(C(=O)Nc4ccc5c(c4)OCCO5)CC3)cnc12 | 766
18 | CCc1ccc(C(O)CN2CCN(c3ncccn3)CC2)cc1 (stereo not given) | 621

More lines, now with the values ahead:

Row | RP-LC retention time [s] | Structure (SMILES)
19 | 983 | Cc1ccc(S(=O)(=O)N2CCC(c3nc(-c4ccncc4)no3)CC2)cc1C
20 | 979 | COc1ccc(-c2cc3nn(CC(=O)Nc4cccc(Cl)c4)c(=O)n3c(C)n2)cc1
21 | 562 | CCN(CCN(C)C)c1nc(-c2ccc(OC)cc2)nc2ccccc12
22 | 968 | O=C(Nc1ccc(SCc2nnc(-c3ccccc3)o2)cc1)c1cccs1
23 | 645 | CCCc1cc(N2CCN(C(=O)COc3ccc(F)cc3)CC2)nc2nnc(C)n12
24 | 854 | CCN(CC)C(=O)Cn1c(=O)c2cnc(-c3ccccc3)nc2n(C)c1=O
25 | 1050 | COc1ccccc1N1CCN(C(=O)c2sc3cccc(F)c3c2OC)CC1
26 | 1080 | CCc1nc2cc(-c3noc(-c4ccccc4OC)n3)ccc2o1
27 | 716 | Cc1ccc(C(=O)NCCc2nc3cccnc3n2CC(C)C)cc1
28 | 784 | COc1ccc(CCC(=O)N2CCC(n3nnc4cc(F)ccc4c3=O)CC2)cc1
29 | 721 | COc1ccc(C(=O)Nc2cc(-c3cccnc3)no2)cc1
30 | 974 | COc1ccc(Cl)cc1NC(=O)Cn1nc2cc(-c3ccccc3)nc(C)n2c1=O
31 | 662 | CNC(=O)c1cccc(C(=O)N(C)c2ccccc2)n1
32 | 819 | CCCCN(C)c1nc(-c2ccc(C)cc2)nc2ccccc12
33 | 1040 | Cc1sc(NC(=O)c2cccc(Br)c2)nc1-c1ccc2c(c1)NC(=O)C(C)O2 (stereo not given)
34 | 1100 | COC(=O)c1cccc(C(=O)Nc2ccc(C)cc2Cl)n1
35 | 990 | Cc1nc(-c2ccc3c(c2)CCN3C(=O)Cc2ccc(F)cc2)cs1
